Measured values published in patent publication US11866482B2, “System and method for homogenous GPCR phosphorylation and identification of beta-2 adrenergic receptor positive allosteric modulators” (Duke University, priority 2018, dated 2024).
Blank lines part the entries; values can stand above or below the molecule they belong to.

Columns and labels:
M2Rpp [1] = target: T1, M2Rpp (Homo sapiens, UniProt P08172); assay: [3H]-NMS competition binding, sortase-ligated M2Rpp HDLs
T1 sequence (P08172 1-466): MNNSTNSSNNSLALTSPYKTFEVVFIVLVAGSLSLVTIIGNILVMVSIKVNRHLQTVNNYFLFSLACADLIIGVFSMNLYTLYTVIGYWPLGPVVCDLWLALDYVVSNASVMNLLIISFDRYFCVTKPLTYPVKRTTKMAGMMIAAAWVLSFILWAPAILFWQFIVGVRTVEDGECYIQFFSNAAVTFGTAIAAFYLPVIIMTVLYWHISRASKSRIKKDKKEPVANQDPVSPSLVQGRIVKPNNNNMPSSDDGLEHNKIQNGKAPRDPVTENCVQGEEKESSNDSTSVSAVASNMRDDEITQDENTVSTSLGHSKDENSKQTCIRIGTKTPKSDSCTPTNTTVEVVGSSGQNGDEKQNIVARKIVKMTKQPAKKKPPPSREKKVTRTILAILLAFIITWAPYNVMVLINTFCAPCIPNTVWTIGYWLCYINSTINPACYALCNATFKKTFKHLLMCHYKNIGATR
Experimental: (§1) Radioligand Binding: All equilibrium competition radioligand binding studies were conducted in a final volume of 200 μL containing HDL-receptor, radioligand, a titration of unlabeled competitor, and the presence or absence of the indicated transducer protein. All components were diluted in assay buffer containing 20 mM HEPES, pH 7.4, 100 mM NaCl, and 1 mg/mL bovine serum albumin (BSA). […] G protein or βarr1 were used at a final concentration of 100 nM or 1 μM, respectively, unless specified otherwise. Binding reactions proceeded at room temperature and were harvested onto glass-fiber filters (GFB) with 0.3% polyethyleneimine (PEI) using a 96-well Brandel harvester. Binding data were analyzed in GraphPad Prism using a sigmoidal dose-response curve fit, and differences in log IC50 values were analyzed by one-way ANOVA.

β2AR [2] = target: β2AR (Homo sapiens, UniProt P07550, N187E); assay: ISO competition binding against 125I-CYP in presence of PAM, β2AR reconstituted in HDL particles; conditions: ISO vs 125I-CYP
β2AR [3] = target: T2, β2AR (Homo sapiens, UniProt P07550); assay: 3H-FEN agonist binding to β2AR in cell membranes; parameters: host or cells: cell membranes
Experimental: Accordingly, these 50 potential hits from the selection were tested for their ability to increase binding of a radiolabeled agonist, ^3H-fenoterol (^3H-FEN) to the β2AR in membrane preparations, both in the absence and presence of transducers (FIGS. 14E and 14F).
Another feature of allosteric molecules observed in both binding experiments is the “ceiling” effect.

β2AR [4] = target: T2, β2AR; assay: ISO-induced G protein-mediated cAMP production, endogenously expressed β2AR; type: cell-based; conditions: FIGS. 15A and 15B
M2Rpp [5] = target: T1, M2Rpp; assay: In vitro G protein GTPase assay, M2Rpp HDLs (Gi); conditions: FIG. 11
Experimental: (§2) G protein GTPase Assay: The GTPase activity of Gαs or Gαi was measured in vitro using the GTPase Glo Assay (Promega) with the following modifications. Final reaction buffer consisted of 20 mM HEPES, pH 7.4, 100 mM NaCl, 10 mM MgCl2, and 1 mg/mL BSA. HDL-β2AR (4 nM), −M2R (100 nM), or MOR (100 nM) was incubated in the absence or presence of the indicated agonist (5 μM) and βarr1 (1 μM) for 15 min at room temperature.
(§3) To test this, an in vitro GTPase activity assay was performed that can quantitatively measure agonist-induced receptor activation of G protein.

MORpp [6] = target: T3, MORpp (Homo sapiens, UniProt P35372); assay: [3H]-Naloxone competition binding, sortase-ligated MORpp HDLs
T3 sequence (P35372 with tags, fused parts or gaps): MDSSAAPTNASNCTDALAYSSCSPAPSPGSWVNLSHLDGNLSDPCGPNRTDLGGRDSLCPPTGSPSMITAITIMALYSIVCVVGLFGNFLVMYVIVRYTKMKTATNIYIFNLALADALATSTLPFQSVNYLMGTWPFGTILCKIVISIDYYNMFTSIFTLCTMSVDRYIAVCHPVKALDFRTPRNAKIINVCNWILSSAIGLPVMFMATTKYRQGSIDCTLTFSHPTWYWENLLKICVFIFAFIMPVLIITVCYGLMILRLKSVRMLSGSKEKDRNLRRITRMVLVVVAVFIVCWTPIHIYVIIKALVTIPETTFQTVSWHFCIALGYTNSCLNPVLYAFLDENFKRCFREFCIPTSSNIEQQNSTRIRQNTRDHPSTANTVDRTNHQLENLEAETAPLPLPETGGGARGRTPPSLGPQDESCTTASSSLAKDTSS
Experimental: as §1

MORpp [7] = target: T3, MORpp; assay: In vitro G protein GTPase assay, MORpp HDLs (Gi); conditions: FIG. 11
Experimental: as §2, §3

β1AR = β1AR (Homo sapiens, UniProt P08588); assay: β1AR-mediated cAMP production; type: cell-based; conditions: FIG. 21B
Chain of β1AR (P08588 whole entry): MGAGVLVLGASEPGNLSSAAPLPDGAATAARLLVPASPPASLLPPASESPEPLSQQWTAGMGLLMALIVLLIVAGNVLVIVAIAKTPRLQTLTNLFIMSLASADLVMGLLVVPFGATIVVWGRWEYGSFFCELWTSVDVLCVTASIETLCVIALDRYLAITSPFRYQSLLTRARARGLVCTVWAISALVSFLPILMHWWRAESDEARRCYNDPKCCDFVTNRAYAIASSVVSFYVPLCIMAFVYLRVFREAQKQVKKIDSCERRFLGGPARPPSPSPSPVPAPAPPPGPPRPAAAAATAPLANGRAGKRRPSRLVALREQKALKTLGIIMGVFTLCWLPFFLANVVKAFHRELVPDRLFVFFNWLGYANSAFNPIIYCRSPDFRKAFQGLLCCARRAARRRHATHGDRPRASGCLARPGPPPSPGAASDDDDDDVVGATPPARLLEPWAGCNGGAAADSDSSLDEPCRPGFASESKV

increase in agonist affinity by βarr1 (M2Rpp [1]): 57 fold | increase in agonist affinity induced by G protein (M2Rpp [1]; Gi heterotrimer): > 100 fold
SMILES: C[N+](C)(C)CCOC(N)=O [carbachol]

potentiation of the IC50 value of ISO (β2AR [2]): ~30 fold | increase in 3H-FEN binding to the β2AR (β2AR [3]): dose-dependently increase the binding
SMILES: COc1ccc(Sc2ccc(S(=O)(=O)Nc3cccc(F)c3)cc2C(=O)N[C@@H](CC(N)=O)Cc2ccc(C(C)(C)C)cc2)cc1 [Cmpd-43, (R)—N-(4-Amino-1-(4-(tert-butyl)phenyl)-4-oxobutan-2-yl)-5-(N-(3-fluorophenyl)sulfamoyl)-2-((4-methoxyphenyl)thio)benzamide]
effect on ISO-induced cAMP production (β2AR [4]): increased the maximal response induced by ISO as well as potentiated the EC50 value

SMILES: C[N+](C)(C)CC#CCOC1=NOCC1 [iperoxo]
G protein activation (GTP hydrolysis) (M2Rpp [5]): increases G protein activation | effects of G protein and βarr on agonist affinity (M2Rpp [1]; FIGS. 9E and 9F): comparable effects of G protein and βarr

SMILES: C[C@@H](NC(=O)[C@@H](N)Cc1ccc(O)cc1)C(=O)NCC(=O)N(C)[C@@H](Cc1ccccc1)C(=O)NCCO [DAMGO]
increase in agonist affinity by βarr1 (MORpp [6]): 2 fold | increase in agonist affinity induced by G protein (MORpp [6]; Gi heterotrimer): > 100 fold | G protein activation (GTP hydrolysis) (MORpp [7]): increases G protein activation

changes in ISO dose response pattern of cAMP production (β1AR): Marginal changes
SMILES: COc1ccc(Sc2ccc(S(=O)(=O)N(C)C(C)C)cc2C(=O)N[C@@H](CC(N)=O)Cc2ccc(C(C)(C)C)cc2)cc1 [Cmpd-6, (R)—N-(4-Amino-1-(4-(tert-butyl)phenyl)-4-oxobutan-2-yl)-5-(N-isopropyl-N-methylsulfamoyl)-2-((4-methoxyphenyl)thio)benzamide]
